Assay results published in patent US20230146455A1, “TREATMENT OF INFLAMMATORY DISEASES WITH PEPTIDES AND PHARMACEUTICAL COMPOSITIONS” (Yuyu Pharma, Inc., priority 2020, published 2023).
Values after ≈ are worked out from the molar mass of the structure shown. “Also recorded” adds a separate entry of the source. Read-outs that look alike come from different tables or passages of the source. Where a SMILES comes first, the peptide text is derived from it. [ ]: non-standard residue; d: D form. The star is where a group is joined. Pyrrolidin1yl(2S-Ac) = CC(=O)[C@@H]1CCCN1*; Hyp = O=C(O)[C@@H]1C[C@@H](O)CN1; NH(CH2)2O(CH2)2NH2 = NCCOCCN*; Pyrrolidide = C1CCN(*)C1; X1 = CCN(C(C)C)*; NMeEt = CCN(C)*

Columns and labels:
[1] = tested on: IL-6 cytokine release in poly I:C stimulated primary human corneal epithelial cells; assay: Soluble IL-6 cytokine release in poly I:C stimulated primary human corneal epithelial cells by ELISA (Example 2); format: cell-based; details: 25 μg/mL poly I:C, 24 hours; for Poly I:C induced IL-6 cytokine release (in words): 30, 10, 1, 0.1, 0.01, 0.001 μM
Description: Assay protocol as shown below was used to determine the significant effect of test compounds. The data was statistically analyzed by one-way ANOVA with a Bonferroni post test comparing all the columns. The significance was represented by the p value.
Selected YDE peptides (YDE-093, -096, -100, -101, -102, -103, -104, -105, -106 and -107) were evaluated by assessing the soluble IL-6 cytokine release in poly I:C stimulated primary human corneal epithelial cells by ELISA (Biolegend, 430504).
Specifically, primary corneal epithelial cells (ATCC, ATCC PCS-700-010) were seeded on a 6-well culture plate containing the Corneal Epithelial Cell Basal Medium (ATCC, ATCC PCS-700-030) in the Corneal Epithelial Cell Growth Kit (ATCC, ATCC PCS-700-040) in an amount of 1.2×10^5 cells per well, which was then cultured for 24 hours under the conditions of 37° C. and 5% CO2. Then, cells were washed with 1×PBS and replaced with serum free medium which was then cultured for 2 hours under the conditions of 37° C. and 5% CO2.
After 2 hours, cells were treated with compounds at 6 differential concentrations (Hinokitiol/YDE peptides at 30, 10, 1, 0.1, 0.01, and 0.001 μM) with the DMSO final 0.5% and then cultured for 1 hour under the conditions of 37° C. and 5% CO2.
After 1 hour, cells were further treated with 25 μg/mL of poly I:C and cultured for 24 hours under the conditions of 37° C. and 5% CO2.
Following incubation, the supernatant was collected for IL-6 levels was assessed by Sandwich ELISA (Enzyme-linked immunosorbent assay) following manufacturer's instructions. The data was statistically analyzed by one-way ANOVA with a Bonferroni post-test comparing all the columns. The significance was represented by the p value.

[2] = Solubility (in water; in saline); format: physicochemical; details: for solubility: water
Caco-2 cells monolayer = assay: Apparent permeability, 21 day cultured Caco-2 cell monolayer, bi-directional (Example 7); format: in vitro ADME
Description: (§1) 10 mM stock solution of test compound was prepared in DMSO. 10 mM stock was diluted with 100% DMSO to prepare 0.2 mM, 0.2 mM stock was diluted with HBSS buffer to a final concentration of 2 μM.
(§2) Add 250 μL of DMEM to the basal compartment of 96 well multi-screen Caco-2 plates and seed 12000 cells/well (0.16×10^6 cells/ml) in all the apical wells required and 2 wells with only media as blank without cells. Place the Caco-2 plate in CO2 incubator at 37° C. for proliferation of cells.
(§3) The utilized media was replenished every alternate day by fresh medium. On 21st day, utilized medium was removed and washed twice with HBSS Buffer and incubated with HBSS buffer 30 min in incubator and initiated the assay.
(§4) 75 μL of test compound was added to apical wells and 250 μL of HBSS buffer with 1% DMSO was added to basal wells. Samples were collected at 120 min and processed as stated below.
(§5) 250 μL of test compound was added to basal wells and 75 μL of HBSS buffer with 1% DMSO was added to apical wells. Samples were collected at 120 min and processed as stated below.
(§6) Single point calibration curve in HBSS buffer was used. 100 μL of supernatant was diluted with 200 μL of water and submitted for LC-MS/MS analysis.
(§7) Efflux ratio=Papp of basal to apical samples/Papp of apical to basal samples
(§8) Recovery: {(dQ of Apical+dQ of Basal)/Standard dQ}*100

[3] = as above; format: in vitro ADME; details: human; for recovery at 120 min, 2 μM: Caco-2, 2 μM
Description: as §1, §2, §3, §4, §5, §6, §7, §8

[4] = tested on: IL-6 cytokine release in poly I:C stimulated primary human corneal epithelial cells; assay: Soluble IL-6 cytokine release in poly I:C stimulated primary human corneal epithelial cells by ELISA (Example 6); format: cell-based
From the text: To determine the effect of compound by assessing the soluble IL-6 cytokine release in poly I:C stimulated primary human corneal epithelial cells by ELISA. • Test System: Primary Human Corneal Epithelial cells • Assay Format: 96-well plate format • Method of Detection: Enzyme-linked immunosorbent assay • Assay Controls: Hinokitiol Assay protocol as shown below was used to determine the significant effect of test compounds. The data was statistically analyzed by one-way ANOVA with a Bonferroni post test comparing all the columns. The significance was represented by the p value.

Compound | tested concentrations with significant attenuation of IL-6 cytokine release [1] | Poly I:C induced IL-6 cytokine release (in words) [1] | Solubility in Water [2] | solubility [2] | further results
CCNC(=O)[C@@H]1CCCN1C(=O)CNC(=O)[C@H](C)NC(=O)[C@H](CC(C)C)NC(=O)CNC(=O)[C@H](CC(C)C)NC(=O)[C@H](CCC(N)=O)NC(=O)CNC(=O)[C@@H]1C[C@@H](O)CN1 [YDE-102] (H-[Hyp]GQLGLAGP-NHEt) | 30 μM, 10 μM, and 1 μM | attenuation of IL-6 release | 10000 µg/mL (≈ 11.7 mM) |  | Poly I:C induced IL-6 cytokine release (in words) ([1]; listed as YDE102): attenuate Poly I:C induced IL-6 cytokine release in a dose dependent manner
CCN(C)C(=O)[C@@H]1CCCN1C(=O)CNC(=O)[C@H](C)NC(=O)[C@H](CC(C)C)NC(=O)CNC(=O)[C@H](CC(C)C)NC(=O)[C@H](CCC(N)=O)NC(=O)CNC(=O)[C@@H]1C[C@@H](O)CN1 [YDE-105] (H-[Hyp]GQLGLAGP-NMeEt) |  |  |  | 10000 µg/mL (≈ 11.5 mM) | tested concentrations with significant attenuation of IL-6 cytokine release ([1]; listed as YDE105): 30 μM, 10 μM, and 1 μM; Poly I:C induced IL-6 cytokine release (in words) ([1]; listed as YDE105): attenuate Poly I:C induced IL-6 cytokine release in a dose dependent manner
CC(C)NCC(O)COc1cccc2ccccc12 (centres unmarked) [Propranolol, reference compound] |  |  |  |  | Classification (Caco-2 Permeability) (Caco-2 cells monolayer): HIGH; recovery at 120 min, 2 μM ([3]; 120 minutes, read-out: A to B % Recovery): 80.1%; recovery at 120 min, 2 μM ([3]; 120 minutes, read-out: B to A % Recovery): 90.3%; Papp A→B at 120 min, 2 μM ([3]; Caco-2, 2 μM, 120 minutes, average values, read-out: Papp Apical to Basal): 23.8 ×10⁻⁶ cm/s; Papp B→A at 120 min, 2 μM ([3]; Caco-2, 2 μM, 120 minutes, average values, read-out: Papp Basal to Apical): 37.1 ×10⁻⁶ cm/s; efflux ratio at 120 min, 2 μM ([3]; Caco-2, Papp B-A / Papp A-B): 1.56
CC(C)C[C@H](NC(=O)CNC(=O)[C@H](CC(C)C)NC(=O)[C@H](CCC(N)=O)NC(=O)CNC(=O)[C@@H]1C[C@@H](O)CN1)C(=O)N[C@@H](C)C(=O)NCC(=O)N1CCC[C@H]1C(=O)N1CCCC1 [YDE-106] (H-[Hyp]GQLGLAGP-Pyrrolidide) | 30 μM, 10 μM, and 1 μM | attenuation of IL-6 release | 10000 µg/mL (≈ 11.4 mM) |  | Poly I:C induced IL-6 cytokine release (in words) ([1]; listed as YDE106): attenuate Poly I:C induced IL-6 cytokine release in a dose dependent manner
CC(C)C[C@H](NC(=O)CNC(=O)[C@H](CC(C)C)NC(=O)[C@H](CCC(N)=O)NC(=O)CNC(=O)[C@@H]1C[C@@H](O)CN1)C(=O)N[C@@H](C)C(=O)NCC(=O)N1CCC[C@H]1C(=O)N(C)C [YDE-101] (H-[Hyp]GQLGLAGP-NMe2) | 30 μM, 10 μM, and 1 μM | attenuation of IL-6 release | 10000 µg/mL (≈ 11.7 mM) |  | Poly I:C induced IL-6 cytokine release (in words) ([1]; listed as YDE101): attenuate Poly I:C induced IL-6 cytokine release in a dose dependent manner
CC(C)C[C@H](NC(=O)CNC(=O)[C@H](CC(C)C)NC(=O)[C@H](CCC(N)=O)NC(=O)CNC(=O)[C@@H]1C[C@@H](O)CN1)C(=O)N[C@@H](C)C(=O)NCC(=O)N1CCC[C@H]1C(=O)N[C@@H](CCCCN)C(=O)NCCOCCN [YDE-096] (H-[Hyp]GQLGLAGPK-{NH(CH2)2O(CH2)2NH2}) |  | attenuation of IL-6 release; also recorded: attenuate Poly I:C induced of IL-6 cytokine release in a dose dependent manner |  | 10000 µg/mL (≈ 9.62 mM) | Poly I:C induced IL-6 cytokine release (in words) [4]: attenuate Poly I:C induced of IL-6 cytokine release in a dose dependent manner; tested concentrations with significant attenuation of IL-6 cytokine release [4]: 30 μM, 10 μM, 1 μM and 0.1 μM
CC(C)C[C@H](NC(=O)CNC(=O)[C@H](CC(=O)O)NC(=O)[C@H](CCC(N)=O)NC(=O)CNC(=O)[C@@H]1C[C@@H](O)CN1)C(=O)N[C@@H](C)C(=O)O [YDE-094, O*GQDGLA] (H-[Hyp]GQDGLA-OH) |  |  |  | 10000 µg/mL (≈ 14.9 mM) | 
CCN(C)C(=O)[C@@H]1CCCN1C(=O)CNC(=O)[C@H](C)NC(=O)[C@H](CC(C)C)NC(=O)CNC(=O)[C@H](CC(C)C)NC(=O)[C@H](CCC(N)=O)NC(=O)CNC(=O)[C@@H]1C[C@@H](O)CN1 [YDE-103] (H-[Hyp]GQLGLAGP-NMeEt) |  | attenuation of IL-6 release |  |  | tested concentrations with significant attenuation of IL-6 cytokine release ([1]; listed as YDE103): 30 μM, 10 μM, 1 μM and 0.1 μM; Poly I:C induced IL-6 cytokine release (in words) ([1]; listed as YDE103): attenuate Poly I:C induced IL-6 cytokine release in a dose dependent manner
CC(C)C[C@H](NC(=O)CNC(=O)[C@H](CC(C)C)NC(=O)[C@H](CCC(N)=O)NC(=O)CNC(=O)[C@@H]1C[C@@H](O)CN1)C(=O)N[C@@H](C)C(=O)NCC(=O)N1CCC[C@H]1C(=O)N[C@@H](CCCCN)C(=O)NCCOCCN [YDE-093] (H-[Hyp]GQLGLAGPK-{NH(CH2)2O(CH2)2NH2}) |  | attenuation of IL-6 release; also recorded: attenuate Poly I:C induced of IL-6 cytokine release in a dose dependent manner | 10000 µg/mL (≈ 9.62 mM) |  | Poly I:C induced IL-6 cytokine release (in words) [4]: attenuate Poly I:C induced of IL-6 cytokine release in a dose dependent manner; tested concentrations with significant attenuation of IL-6 cytokine release [4]: 30 μM, 10 μM, 1 μM and 0.1 μM
CCN(C(=O)[C@@H]1CCCN1C(=O)CNC(=O)[C@H](C)NC(=O)[C@H](CC(C)C)NC(=O)CNC(=O)[C@H](CC(C)C)NC(=O)[C@H](CCC(N)=O)NC(=O)CNC(=O)[C@@H]1C[C@@H](O)CN1)C(C)C [YDE-107] (H-[Hyp]GQLGLAGP-X1) | 30 μM, 10 μM, and 1 μM | attenuation of IL-6 release |  | 10000 µg/mL (≈ 11.2 mM) | Poly I:C induced IL-6 cytokine release (in words) ([1]; listed as YDE107): attenuate Poly I:C induced IL-6 cytokine release in a dose dependent manner
CC(=O)[C@@H]1CCCN1C(=O)CNC(=O)[C@H](C)NC(=O)[C@H](CC(C)C)NC(=O)CNC(=O)[C@H](CC(C)C)NC(=O)[C@H](CCC(N)=O)NC(=O)CNC(=O)[C@@H]1C[C@@H](O)CN1 [YDE-100] (H-[Hyp]GQLGLAG-{Pyrrolidin1yl(2S-Ac)}) | 30 μM, and 10 μM | attenuation of IL-6 release | 10000 µg/mL (≈ 12.2 mM) |  | Poly I:C induced IL-6 cytokine release (in words) ([1]; listed as YDE100): attenuate Poly I:C induced IL-6 cytokine release in a dose dependent manner
